According to patent US8487009B2, “1,2-diphenylethene derivatives for treatment of immune diseases” (Glaxo Group Limited, priority 2001, dated 2013):
Where two headings read alike, the source gives them in different places.

What was measured:
[1] = tested on: induced edema in Balb/c mouse; experiment: TPA induced mouse ear edema model; assay type: in vivo; conditions: single topical administration
Description: Briefly, Balb/c mouse ear edema was induced by phorbol-12-myristate-13-acetate (TPA) by adding 20 ul of 0.01% (w/v) to the right ear of each mouse. Each test compound dissolved in the same vehicle (ethanol) as TPA was applied separately to the right ear of each moue. The mouse ear edema of each test compound was compared with that of the TPA and expressed as % of inhibition.

IFN-γ = IFN-γ production from Con A activated T-cells (ELISA); assay type: cell-based, murine; conditions: read-out: Concentration for 50% of inhibition of IFN-γ, IC50
Description: (§1) To determine the effect of the inventive compounds on non-specific and specific antigen induced T-cell proliferation, compounds were tested at a range of concentrations as outlined by the following protocol: Murine lymph nodes were removed aseptically and cell suspensions were prepared in RPMI-1640. Single lymphocytes were isolated over Lymphocyte-M by centrifugation at 22° C. and 1800 g for 15 min, and then washed three times (500 g for 5 min at 22° C.). Adherent cells were depleted by cytoadherence to fibronectin-coated plastic culture dish (twice at 37° C. for 45 min). T-cells isolated by incubating cell suspensions in a nylon wool column for 2 h at 37° C. and use for subsequent experiments were greater than 95% viable, as determined by trypan blue exclusion. Feeder cells were prepared by treating BALB/C spleen cells with mitomycin C (50 μg/ml, for 20 min at 37° C.) followed by five times washing using a large volume of Hank's solution. C57BL/6 Responders (2×10^5) was incubated in duplicate with the mitomycin C treated BALB/C feeder cells (2×10^5) in 96-well, round-bottomed, microtitre plates (Costar Laboratories, Worcester, Mass.) with complete medium (RPMI 1640 with 25 mM Hepes and L-glutamine supplemented with […] 2-mercapto-ethanol, 10% fetal cow serum (FCS), 10,000 unit of penicillin, and 10 mg of streptomycin per 100 ml of medium) at 37° C., 5% CO2. After 96 h, the culture wells received [^3H]thymidine ([^3H]TdR; 1 μCi/well) and proliferation was assessed at 16 h by harvesting cells onto glass fiber filter paper and counting in a β-counter.
(§2) To determine the effect of inventive compounds on IL-2, IL-4 and IFN-γ production from activated T-cells, the following assays were performed using the protocol outlined above for T-cells. The T-cell was activated by concanavalin A (Con A) and incubated, cytokines in the supernatants were assayed by commercial immune-linked immunosorbent assay (ELISA) kits.

TNF-α production = TNF-α production by macrophage cells (ELISA); assay type: cell-based; conditions: murine macrophage cells, 24 h; for Effect on TNF-α production, % of control: 10 μM; for activity at 10 µM: Mus musculus, read-out: Effect on TNF-α production, % of control
Source text: (§3) Macrophages are very important components of the host defense system, but they are also involved in the development of tissue injury during inflammation in some human disease. Efficient antagonists can block subsequent symptoms (skin redness, edema, pain and dysfunction) of inflammation. CD86 expression, nitric oxide and TNF-α production are experimental indicators of macrophage function in vivo. CD86 expression by antigen presenting cells, including dendritic cells, macrophages and activated B cells, is necessary for interaction with T-cell CD28, which is necessary for T-cells to be fully activated. Nitric oxide is a potent microbiological macrophage product. TNF-α is a pro-inflammatory cytokine important in recruitment and stimulation of inflammatory cells. The effect of inventive compounds on the TNF-α production by macrophage cells was tested using the following protocol: Murine macrophage cells were lifted from adherent culture and resuspended in 10% FCS in DMEM. Cells (5×10^4/well) were aliquoted into flat bottom, tissue culture-treated microtitre plates and lipolysaccharide, N-acetylcysteine, test compound or vehicle controls were added. The cells were incubated at 37° C., 5% CO2 for 24 h and the culture supernatant removed for TNF-α ELISA, and CD86 expression was determined by FACS analysis on flow cytometer.

IL-2 production = IL-2 production from Con A activated T-cells (ELISA); assay type: cell-based, murine; conditions: read-out: Inhibitory activity against IL-2 production, IC50
Description: as §1, §2

T-cell proliferation = T-cell proliferation ([3H]thymidine uptake, C57BL/6 responders with mitomycin C treated BALB/C feeder cells); assay type: cell-based; conditions: murine T-cells, read-out: Concentration that provides 50% inhibition of T-cell proliferation, IC50
Description: T-cell assay is commonly employed as a primary platform for testing of activities that modulate immune and inflammatory activities in many diseases. Assays of antigen non-specific T-cell proliferation and antigen-specific proliferation are often used in the tests.
as §1

[2] = tested on: CD86 expression in murine macrophages; experiment: CD86 expression in murine macrophages (FACS); assay type: cell-based; conditions: 10 μM, 24 h
Source text: as §3

[3] = tested on: FMLP induced neutrophil activation; experiment: FMLP induced neutrophil activation, chemoluminescence; assay type: cell-based; conditions: Homo sapiens, read-out: FMLP induced neutrophil activation, Chemoluminescence (mV), % of control
Description: (§4) Neutrophils predominate over other cell types in many variants of acute and chronic inflammatory condition. Effect of the inventive compounds was tested on human neutrophil activation by chemoattractant [N-formyl-methionyl-luecyl-phenylalanine (FMPL)] and crystal (calcium pyrophosphate dihydrate) using an established protocol (Tudan, C. 1999. Biochem. Pharmacol 58:1869-1880).
(§5) Neutrophils were prepared from freshly collected human citrated whole blood. Briefly, 400 ml of blood were mixed with 80 ml of 4% dextran in Hanks buffered saline solution (HBSS) pH 7.4 and allowed to settle for 1 hour. Plasma was collected continuously and 5 ml applied to 5 ml of Ficoll Paque (Pharmacia) in 15 ml polypropylene tubes. Following centrifugation at 500 g for 30 minutes, the neutrophil pellets were washed free of erythrocytes by 20 seconds of hypotonic shock. Neutrophils were resuspended in HBSS, kept on ice and used for experiments within 3 h. Neutrophil viability and purity was always greater than 90%. Solutions of test compounds were added to neutrophils at 5,000,000 cells per ml under mild vortexing. Cells were incubated for 20 minutes at 33° C. then for 10 minutes at 37° C. before addition to crystals or chemoattractants for neutrophil activation. Chemoluminescence was monitored using an luminometer at 37° C.

[4] = tested on: crystal induced neutrophil activation; experiment: Crystal (calcium pyrophosphate dihydrate) induced neutrophil activation, chemoluminescence; assay type: cell-based, human; conditions: 25 μM
Description: as §4, §5

[5] = tested on: histamine release by mast cells; experiment: Histamine release by mast cells derived from mouse bone marrow (hexosamindase activity); assay type: cell-based; conditions: Mast cell, read-out: Effect on histamine release by mast cells, IC50
Description: Histamine is an important mediator and is involved in a wide range of biological activities, including inflammation and allergy. The activity of representative compounds, against histamine release was tested using a standard mast cell assay (Arquardt, C. et al. 1986. Am Rev Respir Dis 133:1105-1109). The mast cells were derived from mouse bone marrow. The histamine release was measured by the hexosamindase activity.

Row | Structure (SMILES) | IC50 (T-cell proliferation) [µM] | IC50 (IFN-γ; Mus musculus, T-cell) [µM] | Effect on CD86 expression in murine macrophages, % of control [2] [%] | IC50 (T-cell proliferation; Mus musculus, T-cell) [µM] | IC50 (IL-2 production; Mus musculus, T-cell) [µM] | further results
1 | CC(C)c1c(O)cc(C(C#N)=Cc2ccccc2)cc1O [2-(3,5-Dihydroxy-4-i-propylphenyl)-3-phenylpropenylnitrile] | 3.5 | – | – | – | – | % inhibition of edema [1]: 85.2%; IC50 (IFN-γ): 0.86 µM; Effect on TNF-α production, % of control (TNF-α production): 60%; IC50 (IL-2 production): 0.13 µM
2 | C=C1/C(=C\C=C2/CCC[C@]3(C)[C@@H]([C@H](C)CCCC(C)(C)O)CC[C@@H]23)C[C@@H](O)C[C@@H]1O [calcitriol, reference compound] | – | – | – | – | – | % inhibition of edema ([1]; 0.01% calcitriol): 31.2%
3 | CC(=Cc1ccccc1)c1cc(O)c(C(C)C)c(O)c1 [5-(1-Methyl-2-phenylethenyl)-2-i-propyl-1,3-benzenediol] | – | 1.62 | 0 | 1.49 | – | –
4 | CC(=Cc1cc(O)c(C(C)C)c(O)c1)c1ccccc1 [5-(2-Methyl-2-phenylethenyl)-2-i-propyl-1,3-benzenediol] | – | – | 51 | 1.15 | 0.4 | activity at 25 µM [3]: 30%; Crystal induced neutrophil activation, chemoluminescence (mV) as % of the control ([4]; time 1 minute): 23%; Crystal induced neutrophil activation, chemoluminescence (mV) as % of the control ([4]; time 2 minutes): 10%; Crystal induced neutrophil activation, chemoluminescence (mV) as % of the control ([4]; time 3 minutes): 7%; Crystal induced neutrophil activation, chemoluminescence (mV) as % of the control ([4]; time 4 minutes): 6%; Crystal induced neutrophil activation, chemoluminescence (mV) as % of the control ([4]; time 5 minutes): 6%; Crystal induced neutrophil activation, chemoluminescence (mV) as % of the control ([4]; time 7 minutes): 16%; Crystal induced neutrophil activation, chemoluminescence (mV) as % of the control ([4]; time 10 minutes): 29%
5 | CC(C)c1c(O)cc(C=Cc2ccccn2)cc1O.Cl [2-[2-(3.5-Dihydroxy-4-i-propylphenyl)ethenyl]pyridine hydrochloride] | 2.09 | – | 88 | – | – | Effect on TNF-α production, % of control (TNF-α production): 75%
6 | CC(C)c1c(O)cc(C=C(C#N)c2ccccc2)cc1O [3-(3,5-Dihydroxy-4-i-propylphenyl)-2-phenylpropenylnitrile] | 1.81 | – | 16 | – | – | IC50 (IFN-γ): 0.71 µM
7 | CC(C)c1c(O)cc(C=Cc2cccs2)cc1O [2-i-Propyl-5-(2-thiophene-2-ylethenyl)-1,3-benzenediol] | – | 0.08 | 2 | 5.16 | 0.028 | activity at 10 µM (TNF-α production): 50%; IC50 [5]: 18.9 µM
8 | CC(=Cc1cc(O)cc(O)c1)c1ccccc1 [5-(2-Methyl-2-phenylethenyl)-1,3-benzenediol] | – | – | 90 | 4.65 | 1.79 | activity at 10 µM (TNF-α production): 42%
9 | CC(C)c1c(O)cc(C=C(c2ccccc2)c2ccccc2)cc1O [5-(2,2-Diphenylethenyl)-2-i-propyl-1,3-benzenediol] | – | 1.71 | 10 | – | – | –
